Results taken from the supplement of paper PMC5662764.
± gives the standard deviation of the averaged measurements.

What was measured:
Assay in all cases: normalised growth rate inhibition (GR value) relative to DMSO control (GR (1 = untreated growth, 0 = cytostasis, <0 = cytotoxic)); higher = less growth inhibition
Settings in all cases: 72 h
MCF7 = tested on: MCF7
Procedure: (§1)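 Breast cancer cell lines (BT-20, Hs 578T, MCF 10A, MCF7, MDA-MB-231, SK-BR-3) were plated in 384-well plates and treated 24 h later with drugs at six concentrations (0.04-10 µM). Viable cells were counted by Hoechst/dead-cell-stain imaging at 0 and 72 h. Counts were normalised to DMSO controls on the same plate to give the relative cell count and the growth-rate inhibition (GR) value; technical plate triplicates were averaged for each biological replicate.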

SKBR3 = tested on: SKBR3
Procedure: as §1

MCF10A = tested on: MCF10A
Procedure: as §1

HS578T = tested on: HS578T
Procedure: as §1

MDAMB231 = tested on: MDAMB231
Procedure: as §1

BT20 = tested on: BT20
Procedure: as §1

Row | Compound | normalised growth rate inhibition (MCF7; 0.04 µM) | normalised growth rate inhibition (MCF7; 0.12 µM) | normalised growth rate inhibition (MCF7; 0.37 µM) | normalised growth rate inhibition (MCF7; 1.11 µM) | normalised growth rate inhibition (MCF7; 3.33 µM) | normalised growth rate inhibition (MCF7; 10 µM) | normalised growth rate inhibition (SKBR3; 0.04 µM) | normalised growth rate inhibition (SKBR3; 0.12 µM) | normalised growth rate inhibition (SKBR3; 0.37 µM) | normalised growth rate inhibition (SKBR3; 1.11 µM) | normalised growth rate inhibition (SKBR3; 3.33 µM) | normalised growth rate inhibition (SKBR3; 10 µM) | normalised growth rate inhibition (MCF10A; 0.04 µM) | normalised growth rate inhibition (MCF10A; 0.12 µM) | normalised growth rate inhibition (MCF10A; 0.37 µM) | normalised growth rate inhibition (MCF10A; 1.11 µM) | normalised growth rate inhibition (MCF10A; 3.33 µM) | normalised growth rate inhibition (MCF10A; 10 µM) | normalised growth rate inhibition (HS578T; 0.04 µM) | normalised growth rate inhibition (HS578T; 0.12 µM) | normalised growth rate inhibition (HS578T; 0.37 µM) | normalised growth rate inhibition (HS578T; 1.11 µM) | normalised growth rate inhibition (HS578T; 3.33 µM) | normalised growth rate inhibition (HS578T; 10 µM) | normalised growth rate inhibition (MDAMB231; 0.04 µM) | normalised growth rate inhibition (MDAMB231; 0.12 µM) | normalised growth rate inhibition (MDAMB231; 0.37 µM) | normalised growth rate inhibition (MDAMB231; 1.11 µM) | normalised growth rate inhibition (MDAMB231; 3.33 µM) | normalised growth rate inhibition (MDAMB231; 10 µM) | normalised growth rate inhibition (BT20; 0.04 µM) | normalised growth rate inhibition (BT20; 0.12 µM) | normalised growth rate inhibition (BT20; 0.37 µM) | normalised growth rate inhibition (BT20; 1.11 µM) | normalised growth rate inhibition (BT20; 3.33 µM) | normalised growth rate inhibition (BT20; 10 µM)
1 | Cc1[nH]c(/C=C2\C(=O)Nc3ccc(S(=O)(=O)N(C)c4cccc(Cl)c4)cc32)c(C)c1C(=O)N1CCN(C)CC1 | 1.1 ± 0.046 | 1.05 ± 0.075 | 1.01 ± 0.073 | 0.858 ± 0.037 | 0.712 ± 0.045 | 0.0989 ± 0.046 | 1.14 ± 0.075 | 1.08 ± 0.085 | 1.11 ± 0.057 | 0.996 ± 0.058 | 0.923 ± 0.032 | 0.00625 ± 0.024 | 1 ± 0.019 | 0.976 ± 0.02 | 0.941 ± 0.02 | 0.867 ± 0.01 | 0.742 ± 0.022 | 0.474 ± 0.032 | 1.02 ± 0.014 | 0.992 ± 0.013 | 0.9492 ± 0.0032 | 0.883 ± 0.025 | 0.818 ± 0.03 | 0.159 ± 0.083 | 1.07 ± 0.065 | 1.01 ± 0.04 | 1 ± 0.057 | 0.954 ± 0.058 | 0.847 ± 0.076 | 0.0987 ± 0.12 | 1.06 ± 0.037 | 1.04 ± 0.017 | 1 ± 0.029 | 0.922 ± 0.015 | 0.819 ± 0.011 | 0.0654 ± 0.082
2 | Cc1cn(-c2cc(NC(=O)c3ccc(C)c(Nc4nccc(-c5cccnc5)n4)c3)cc(C(F)(F)F)c2)cn1 [nilotinib] | 1.03 ± 0.021 | 1.04 ± 0.038 | 0.971 ± 0.021 | 0.958 ± 0.014 | 0.956 ± 0.059 | 0.0407 ± 0.15 | 1.1 ± 0.074 | 1.11 ± 0.043 | 1.15 ± 0.029 | 1.11 ± 0.052 | 1.08 ± 0.068 | 0.208 ± 0.097 | 1 ± 0.036 | 0.991 ± 0.035 | 0.978 ± 0.029 | 0.992 ± 0.044 | 0.982 ± 0.035 | 0.507 ± 0.14 | 1.09 ± 0.056 | 1.1 ± 0.072 | 1.09 ± 0.078 | 1.07 ± 0.06 | 1.07 ± 0.093 | 0.028 ± 0.096 | 0.943 ± 0.038 | 0.914 ± 0.099 | 0.863 ± 0.1 | 0.805 ± 0.14 | 0.818 ± 0.13 | 0.00998 ± 0.16 | 1 ± 0.043 | 1.01 ± 0.044 | 1.02 ± 0.039 | 0.996 ± 0.043 | 1 ± 0.039 | 0.0181 ± 0.099
